In patent publication US20230031406A1, “COMPOUNDS AND COMPOSITIONS FOR TREATING CONDITIONS ASSOCIATED WITH NLRP ACTIVITY” (Novartis AG, priority 2018, published 2023) one finds IC50 data, which are given here for 21 compounds.

SMILES strings stand for the structures. Where two headings read alike, the source gives them in different places.

The assay deals with PMA-differentiated THP-1 cells. Nature of the assay: IL-1β production in PMA-differentiated THP-1 cells stimulated with gramicidin (hTHP-1 assay containing 2% fetal bovine serum; Procedures 1 and 2). The class given is cell-based, human. The settings on record: 2% fetal bovine serum. The method in brief:
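PMA 20 ng/ml 16-18 h → trypsinise → 50,000 cells/well, RPMI/2% FBS; cpd 1 h (11-pt, 100–0.0017 μM; DMSO 0.37%); gramicidin 5 μM, 2 h; spin; supernatant IL-1β via HTRF.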

The mark [1] stands for this setting: Table B1, class symbols, read-out: Average IC50 of compounds in hTHP-1 assay: hTHP-1 IC50.
[2] abbreviates: Table B3, hTHP-1 assay, class symbols, read-out: IC50.
The mark [3] stands for this setting: Homo sapiens, THP-1, Table B2, class symbols, read-out: hTHP-1 IC50.
The mark [4] stands for this setting: Homo sapiens, THP-1, Table B1, class symbols, read-out: Average IC50 of compounds in hTHP-1 assay: hTHP-1 IC50.
The mark [5] stands for this setting: Homo sapiens, THP-1, Table B3, hTHP-1 assay, class symbols, read-out: IC50.

Turning to `CC(C)(O)c1ncc(S(N)(=O)=NC(=O)Nc2c3c(nc4c2CCC4)CCC3)s1` (single isomer, unassigned) [Compound 128b, (S) or (R)-N′-((1,2,3,5,6,7-hexahydrodicyclo-penta[b,e]pyridin-8-yl)carbamoyl)-2-(2-hydroxypropan-2-yl)thiazole-5-sulfonimidamide], the IC50 (as a rule, the midpoint of a concentration-inhibition curve) under setting [1] lay in the range of 5 to 30 µM. Turning to `NS(=O)(=NC(=O)Nc1c2c(nc3c1CCC31CC1)CCC2)c1ccn(CCO)n1` (single isomer, unassigned) [Example 648, (S) or (R)-1-(2-hydroxyethyl)-N′-((1′,5′,6′,7′-tetrahydro-2′H-spiro[cyclopropane-1,3′-dicyclopenta[b,e]pyridin]-8′-yl)carbamoyl)-1H-pyrazole-3-sulfonimidamide], under setting [2], the IC50 was 5 to 30 µM. With `CC(C)(O)c1cc(C#N)cc(S(N)(=O)=NC(=O)Nc2c3c(nc4c2CCC4(C)C)CCC3)c1` (stereo not drawn) [Compound 674, 3-Cyano-N′-((3,3-dimethyl-1,2,3,5,6,7-hexahydrodicyclopenta[b,e]pyridin-8-yl)carbamoyl)-5-(2-hydroxypropan-2-yl)benzenesulfonimidamide], the IC50 under setting [3] fell in the range of 1 to 5 µM. The same measure, in the same setting: the result for `NS(=O)(=NC(=O)Nc1c2c(nc(C3CC3)c1C1CC1)CCC2)c1ccn(C(F)F)n1` (stereo not drawn) [Compound 728] reads 1 to 5 µM. As to `Cc1c(C2CC2)nc2c(c1NC(=O)N=S(N)(=O)c1sc(C(C)(C)O)cc1F)CCC2` (stereo not drawn) [Compound 174, N′-((2-cyclopropyl-3-methyl-6,7-dihydro-5H-cyclopenta[b]pyridin-4-yl)carbamoyl)-3-fluoro-5-(2-hydroxypropan-2-yl)thiophene-2-sulfonimidamide], the IC50 under setting [4] lay in the range of 0.2 to 1 µM. As for `CCc1c(-c2ccccc2)nc2c(c1NC(=O)N=S(N)(=O)c1cnc(C(C)(C)O)s1)CCC2` (stereo not drawn) [Compound 144, N′-((3-ethyl-2-phenyl-6,7-dihydro-5H-cyclopenta[b]pyridin-4-yl)carbamoyl)-2-(2-hydroxypropan-2-yl)thiazole-5-sulfonimidamide], the IC50 (Homo sapiens, THP-1, Table B1, numeric bounds, read-out: Average IC50 of compounds in hTHP-1 assay: hTHP-1 IC50) was above 30 µM. Take `Cc1c(C(C)C)nc2c(c1NC(=O)N=S(N)(=O)c1ccn(C(C)C)n1)CCC2` (single isomer, unassigned) [Compound 644b, (R) or (S)-1-Isopropyl-N′-((2-isopropyl-3-methyl-6,7-dihydro-5H-cyclopenta[b]pyridin-4-yl)carbamoyl)-1H-pyrazole-3-sulfonimidamide]: the IC50 under setting [3] lay in the range of 1 to 5 µM. For the compound `CC1CCc2c1nc1c(c2NC(=O)N=S(N)(=O)c2ncc(C(C)(C)O)s2)CCC1` (single isomer, unassigned) [Compound 140b, (S,R/S) or (R,R/S)-5-(2-hydroxypropan-2-yl)-N′-((3-methyl-1,2,3,5,6,7-hexa-hydrodicyclo-penta[b,e]pyridin-8-yl)carbamoyl)thiazole-2-sulfonimidamide], under setting [1], the IC50 lay in the range of 5 to 30 µM. On to `CC(C)(O)c1csc(S(N)(=O)=NC(=O)Nc2c3c(nc(C(F)(F)F)c2C2CC2)CCC3)c1` (single isomer, unassigned) [Example 646, (R) or (S)-N′-((3-((3-2-(trifluoromethyl)-6,7-dihydro-5H-cyclopenta[b]pyridin-4-yl)carbamoyl)-4-(2-hydroxypropan-2-yl)thiophene-2-sulfonimidamide], for which the IC50 under setting [2] lay in the range of 0.04 to 0.2 µM. Take `NS(=O)(=NC(=O)Nc1c2c(nc(C3CC3)c1C1CC1)CCC2)c1ccn(C(F)F)n1` (single isomer, unassigned) [Example 696, (S) or (R)-N′-((2,3-dicyclopropyl-6,7-dihydro-5H-cyclopenta [b]pyridin-4-yl)carbamoyl)-1-(difluoromethyl)-1H-pyrazole-3-sulfonimidamide]: under setting [2], the IC50 lay within 5 to 30 µM. Take `Cc1cc(C(C)(C)O)sc1S(N)(=O)=NC(=O)Nc1c2c(nc3c1CCC3)CCC2` (single isomer, unassigned) [Compound 695b, (R) or (S)-N′-((1,2,3,5,6,7-hexahydrodicyclopenta [b,e]pyridin-8-yl)carbamoyl)-5-(2-hydroxypropan-2-yl)-3-methylthiophene-2-sulfonimidamide]: the half-inhibitory concentration (IC50) under setting [3] was in the range of 5 to 30 µM.

For `CC(C)n1ccc(S(N)(=O)=NC(=O)Nc2c3c(nc4c2CCC42CC2)CCC3)n1` (single isomer, unassigned) [Compound 172a, (S) or (R)-1-Isopropyl-N′-((1′,5′,6′,7′-tetrahydro-2′H-spiro[cyclopropane-1,3′-dicyclopenta[b,e]pyridin]-8′-yl)carbamoyl)-1H-pyrazole-3-sulfonimidamide], the IC50 under setting [1] was 5 to 30 µM.

For `CC1CCc2c1nc1c(c2NC(=O)N=S(N)(=O)c2sc(C(C)(C)O)nc2CO)CCC1` (single isomer, unassigned) [Compound 168ba, (R,S) or (R,R)-4-(hydroxymethyl)-2-(2-hydroxypropan-2-yl)-N′-((3-methyl-1,2,3,5,6,7-hexahydrodicyclo-penta[b,e]pyridin-8-yl)carbamoyl)thiazole-5-sulfonimidamide], the IC50 under setting [1] was 0.2 to 1 µM. Take `CC(C)(O)c1csc(S(N)(=O)=NC(=O)Nc2cc(C3CC3)nc3c2CCC3)c1` (stereo not drawn) [Compound 176, N′-((2-cyclopropyl-6,7-dihydro-5H-cyclopenta[b]pyridin-4-yl)carbamoyl)-4-(2-hydroxypropan-2-yl)thiophene-2-sulfonimidamide]: under setting [4], the IC50 was 5 to 30 µM. As to `Cc1c(C(F)(F)F)nc2c(c1NC(=O)N=[S@](N)(=O)c1cnc(C(C)(C)O)s1)CC[C@H]2C` [Compound 608b], the IC50 under setting [3] was in the range of 5 to 30 µM.

Take `CO[C@H]1COc2c(S(N)(=O)=NC(=O)Nc3c(C)c(C(F)(F)F)nc4c3CCC4)cnn2C1` (single isomer, unassigned) [Example 656, (R) or (S)-(6R)-6-methoxy-N′-((3-methyl-2-(trifluoromethyl)-6,7-dihydro-5H-cyclopenta[b]pyridin-4-yl)carbamoyl)-6,7-dihydro-5H-pyrazolo[5,1-b][1,3] oxazine-3-sulfonimidamide]: the concentration for half-maximal inhibition (IC50) under setting [5] fell in the range of 1 to 5 µM. As to `CC(C)c1ccnc(C(C)C)c1NC(=O)N=S(N)(=O)c1cnc(C(C)(C)O)s1` (stereo not drawn) [Compound 110, N′-((2,4-diisopropylpyridin-3-yl)carbamoyl)-2-(2-hydroxypropan-2-yl)thiazole-5-sulfonimidamide], under setting [4], the IC50 was 5 to 30 µM. For the compound `CC(C)(O)c1cc(F)c(S(N)(=O)=NC(=O)Nc2c3c(nc(C4CC4)c2C2CC2)CCC3)s1` (stereo not drawn) [Example 570, N′-((2,3-dicyclopropyl-6,7-dihydro-5H-cyclopenta[b]pyridin-4-yl)calbamoyl)-3-fluoro-5-(2-hydroxypropan-2-yl)thiophene-2-sulfonimidamide], under setting [5], the IC50 was 0.2 to 1 µM. Turning to `NS(=O)(=NC(=O)Nc1c2c(nc3c1CCC3)CCC2)c1nn(C(F)F)cc1F` (single isomer, unassigned) [Example 759, (R) or (S)-1-(difluoromethyl)-4-fluoro-N′-((1,2,3,5,6,7-hexahydrodicyclopenta[b,e]pyridin-8-yl)carbamoyl)-1H-pyrazole-3-sulfonimidamide], the IC50 (Homo sapiens, THP-1, Table B4, class symbols, read-out: hTHP-1 IC50) lay within 0.2 to 1 µM.

On to `Cc1c(C2CC2)nc(C2CC2)c(C)c1NC(=O)N=S(N)(=O)c1cc(C(C)(C)O)cs1` (single isomer, unassigned) [Compound 612b, (R) or (S)-N′-((2,6-dicyclopropyl-3,5-dimethylpyridin-4-yl)carbamoyl)-4-(2-hydroxypropan-2-yl)thiophene-2-sulfonimidamide], for which, under setting [3], the IC50 lay within 1 to 5 µM. For the compound `CCn1ccc(S(N)(=O)=NC(=O)Nc2c(C)c(C(F)(F)F)nc3c2CCC3)n1` (stereo not drawn) [Compound 731], the half-maximal inhibitory concentration (IC50) under setting [3] is 1 to 5 µM.
